According to the supplement of paper PMC11061612:

Tests used:
A498 (Kidney Carcinoma) = assay: combination Emax (second highest fraction inhibited in the dose matrix, 72 h); higher = more inhibition; extreme values may be limits of the assay
Summary of the method: (§1)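 After 24 hours at 37°C and 5% CO2 in 1536-well plates, cells in DMEM/F12 or RPMI plus 10% FBS received two-drug dose matrices for 72 hours. Viability came from CellTiter-Glo 2.0 luminescence and was scaled as inhibition, anchored at 0 by vehicle wells and at 1 by blank wells. Combination Emax is taken as the second-highest inhibition in the matrix, and Bliss excess as the observed combination effect less EA + EB − EA·EB, with EA and EB the single-agent effects.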

[1] = system: A549 (Lung Adenocarcinoma); assay: as above
Summary of the method: as §1

[2] = system: CAL-29 (Bladder Carcinoma); assay: as above
Summary of the method: as §1

8-MG-BA (Glioblastoma) = assay: as above
Summary of the method: as §1

ARH-77 (Non-Cancerous) = assay: as above
Summary of the method: as §1

Hs-445 (Non-Cancerous) = assay: as above
Summary of the method: as §1

[3] = system: NCI-H64 (Small Cell Lung Carcinoma); assay: as above
Summary of the method: as §1

[4] = system: CCK-81 (Colorectal Carcinoma); assay: as above
Summary of the method: as §1

NY (Osteosarcoma) = assay: as above
Summary of the method: as §1

[5] = system: COLO-824 (Breast Carcinoma); assay: as above
Summary of the method: as §1

[6] = system: COR-L311 (Small Cell Lung Carcinoma); assay: as above
Summary of the method: as §1

[7] = system: NCI-H1581 (Non-Small Cell Lung Carcinoma); assay: as above
Summary of the method: as §1

IGR-37 (Melanoma) = assay: as above
Summary of the method: as §1

[8] = system: ECC10 (Gastric Carcinoma); assay: as above
Summary of the method: as §1

[9] = system: HCC1954 (Breast Carcinoma); assay: as above
Summary of the method: as §1

[10] = system: JSC-1 (B-Cell Non-Hodgkin's Lymphoma); assay: as above
Summary of the method: as §1

[11] = system: SK-MES-1 (Squamous Cell Lung Carcinoma); assay: as above
Summary of the method: as §1

[12] = system: NCI-H1666 (Lung Adenocarcinoma); assay: Bliss excess, mean over the matrix (fraction); higher = more synergy
Summary of the method: as §1

[13] = system: COR-L311 (Small Cell Lung Carcinoma); assay: as above
Summary of the method: as §1

[14] = system: NCI-H1693 (Lung Adenocarcinoma); assay: as above
Summary of the method: as §1
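Wherever Bliss excess, mean over the matrix is given: after 72 h of two-drug dosing.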

Row | Structure (SMILES) | combination Emax (A498 (Kidney Carcinoma)) | combination Emax [1] | combination Emax [2] | combination Emax (8-MG-BA (Glioblastoma)) | combination Emax (ARH-77 (Non-Cancerous)) | combination Emax (Hs-445 (Non-Cancerous)) | combination Emax [3] | combination Emax [4] | combination Emax (NY (Osteosarcoma)) | combination Emax [5] | combination Emax [6] | combination Emax [7] | combination Emax (IGR-37 (Melanoma)) | combination Emax [8] | combination Emax [9] | combination Emax [10] | combination Emax [11] | Bliss excess [12] | Bliss excess [13] | Bliss excess [14]
1 | CN(CCO)CC[C@H](CSc1ccccc1)Nc1ccc(S(=O)(=O)NC(=O)c2ccc(N3CCC([C@@H](O)c4ccccc4-c4ccc(Cl)cc4)CC3)cc2)cc1S(=O)(=O)C(F)(F)F [AZD4320] + CCN(CCO)CCCOc1ccc2c(Nc3cc(CC(=O)Nc4cccc(F)c4)[nH]n3)ncnc2c1 [AZD2811] (first compound max 1 µM, 7x7, partner max 1 µM) | 0.218 | 0.446 | 0.545 | 0.21 | 0.95 | 0.926 | 1 | 0.178 | 0.121 | 1 | 1 | 0.445 | 0.116 | 1 | 0.851 | 0.341 | 0.342 | -0.0283 | 0.0249 | -0.003
2 | CN(CCO)CC[C@H](CSc1ccccc1)Nc1ccc(S(=O)(=O)NC(=O)c2ccc(N3CCC([C@@H](O)c4ccccc4-c4ccc(Cl)cc4)CC3)cc2)cc1S(=O)(=O)C(F)(F)F [AZD4320] + C[C@@H]1COCCN1C2=NC(=NC(=C2)C3(CC3)[S@](=N)(=O)C)C4=C5C=CNC5=NC=C4 [AZD6738] (first compound max 1 µM, 7x7, partner max 10 µM) | 0.722 | 0.777 | 0.928 | 0.864 | 1 | 1 | 0.99 | 0.828 | 0.903 | 1 | 1 | 0.364 | 0.796 | 1 | 0.734 | 0.888 | 0.904 | -0.0645 | -0.0005 | -0.0055
3 | CN(CCO)CC[C@H](CSc1ccccc1)Nc1ccc(S(=O)(=O)NC(=O)c2ccc(N3CCC([C@@H](O)c4ccccc4-c4ccc(Cl)cc4)CC3)cc2)cc1S(=O)(=O)C(F)(F)F [AZD4320] + C[C@@H](Nc1cc(F)cc(F)c1)c1cc(C(=O)N(C)C)cc2c(=O)cc(N3CCOCC3)oc12 [AZD8186] (first compound max 1 µM, 7x7, partner max 3 µM) | 0.911 | 0.401 | 0.515 | 0.316 | 0.899 | 0.97 | 0.967 | 0.338 | 0.589 | 1 | 1 | 0.287 | 0.341 | 1 | 0.546 | 0.546 | 0.434 | 0.0153 | 0.0588 | 0.0468
4 | CN(CCO)CC[C@H](CSc1ccccc1)Nc1ccc(S(=O)(=O)NC(=O)c2ccc(N3CCC([C@@H](O)c4ccccc4-c4ccc(Cl)cc4)CC3)cc2)cc1S(=O)(=O)C(F)(F)F [AZD4320] + Cc1cc2ncnn2cc1Nc1ncc2c(n1)n(C1CCOCC1)c(=O)n2C [AZD7648] (first compound max 1 µM, 7x7, partner max 10 µM) | 0.37 | 0.369 | 0.21 | 0.168 | 0.841 | 0.746 | 0.964 | 0.111 | 0.156 | 1 | 1 | 0.271 | 0.18 | 1 | 0.48 | 0.246 | 0.127 | -0.0352 | 0.0219 | -0.0639
5 | CN(CCO)CC[C@H](CSc1ccccc1)Nc1ccc(S(=O)(=O)NC(=O)c2ccc(N3CCC([C@@H](O)c4ccccc4-c4ccc(Cl)cc4)CC3)cc2)cc1S(=O)(=O)C(F)(F)F [AZD4320] + Cn1cnc2c(F)c(Nc3ccc(Br)cc3Cl)c(C(=O)NOCCO)cc21 [Selumetinib] (first compound max 1 µM, 7x7, partner max 3 µM) | 0.694 | 0.671 | 0.634 | 0.367 | 0.896 | 0.99 | 0.988 | 0.491 | 0.556 | 1 | 1 | 0.4 | 0.885 | 1 | 0.617 | 0.707 | 0.472 | 0.0676 | -0.0034 | 0.0031
6 | COc1nnc2ccc(N3CCC(c4ccc(OCCN5CCN(C)C(=O)[C@H]5C)cc4)CC3)nn12 [AZD5153] + C=CCn1c(=O)c2cnc(Nc3ccc(N4CCN(C)CC4)cc3)nc2n1-c1cccc(C(C)(C)O)n1 [AZD1775] (first compound max 1 µM, partner max 1 µM) | 0.534 | 0.885 | 0.524 | 0.801 | 0.968 | 0.71 | 0.884 | 0.869 | 0.567 | 0.863 | 0.946 | 0.866 | 0.775 | 0.901 | 0.306 | 0.901 | 0.743 | -0.0944 | -0.06 | -0.0888
